How the values were obtained:
[1] = tested on: human G1/S-specific cyclin D1 in MCF-7 cells; assay: Cyclin D1 ELISA in cell lysates, MCF-7; format: cell-based; conditions: MCF-7, 20 μM, 24 h; untreated cells 2.6 ng/ml
Protocol: (§1) Cell lysates: Briefly, trypsinised cells were washed three times with cold PBS and centrifuged at 1000 g for 5 min at 4 °C. The cells (1 × 10^6) were suspended in lysis buffer for whole cell lysates. After centrifugation, the supernatants were frozen immediately at −70 °C. The concentration of human G1/S-specific cyclin D1 was measured. Cells without addition of compounds were treated as controls.
(§2) Determination of human G1/S-specific cyclin D1: The high sensitivity assay kit (EIAab) was used to determine the concentration of human G1/S-specific cyclin D1 in cell lysates. The microtiter plate provided in this kit has been pre-coated with an antibody specific to cyclin D1. Standards and samples were added to the appropriate microtiter plate wells. After 2 h of incubation at 37 °C, the plate was incubated with biotin-conjugated antibody for 1 h at 37 °C. Then microplate wells were aspirated and washed three times and then incubated with avidin conjugated to horseradish peroxidase (HRP). Then, a TMB substrate solution was added to each well. […] The enzyme–substrate reaction was terminated by the addition of a sulfuric acid solution and the color change was measured spectrophotometrically at a wavelength of 450 nm ± 2 nm. The concentration of cyclin D1 in the samples was determined by comparing the O.D. of the samples to the standard curve.

[2] = tested on: human G1/S-specific cyclin D1 in MDA-MB-231 cells; assay: Cyclin D1 ELISA in cell lysates, MDA-MB-231; format: cell-based; conditions: MDA-MB-231, 20 μM, 24 h
Protocol: as §1, §2

Cc1cc(C)[n+]([Pt-2]2([n+]3c(C)cc(C)n3CO)[N](c3ccc(C(=N)N)cc3)N=[N+](c3ccc(C(=N)N)cc3)[Pt-2]([n+]3c(C)cc(C)n3CO)([n+]3c(C)cc(C)n3CO)[N](c3ccc(C(=N)N)cc3)N=[N+]2c2ccc(C(=N)N)cc2)n1CO.Cl.Cl.Cl.Cl.O.O [PtPz1, [Pt2(N-hydroxymethyl-3,5-dimethylpyrazole)4(berenil)2]·4HCl·2H2O]
concentration of cyclin D1 [1]: 0.8 ng/mL

Cc1ccn[nH]1.Cc1ccn[nH]1.Cc1ccn[nH]1.Cc1ccn[nH]1.Cl.Cl.Cl.Cl.N=C(N)c1ccc(N=N[N]([Pt])c2ccc(C(=N)N)cc2)cc1.N=C(N)c1ccc(N=N[N]([Pt])c2ccc(C(=N)N)cc2)cc1.O.O [PtPz5, [Pt2(5-methylpyrazole)4(berenil)2]·4HCl·2H2O]
concentration of cyclin D1 [2]: 0.7 ng/mL
